Assay results reported in patent US20250257075A1, “MACROCYCLIC INHIBITORS OF KRAS FOR THE TREATMENT OF CANCER” (Hoffmann-La Roche Inc., priority 2022, published 2025).

Legend:
Format in all cases: cell-based
Conditions in all cases: Homo sapiens, MIA PaCa-2, 72 h, 3 d, CellTiter-Glo
[1] = test system: Miapaca-2 mutant cells KRAS G12C + A59T; assay: Stable KRAS mutant cell line viability assay (CTG), G12C + A59T
Text: (§1) The aim of the study was to determine the potency and efficacy of compounds for cell proliferation using CellTiter-Glo® (CTG) Luminescent Cell Viability Assay (Promega Corp., Madison, WI). We cloned […] KRAS^G12C variant sequences with secondary mutations (V8A, V9Y, S17E, T58I, A59T, S65W, R68S, D69P, M72I, D92R, H95N, Y96D, Q99F, Q99W, Y96H, and F156L) into the Miapaca-2. Totally 14 stable Miapaca-2 mutant cell lines were established through lentivirus infection. For the cell viability assay, cells were dosed with compounds in a 9-point dose-response using a 4 fold dilution series at a top dose of 10 μM. KRAS mutant cells were maintained in DMEM+10% FBS+2.5% HI Horse serum+1% PS+1 μg/mL Puromycin and seeded into 96-well plates at 800-1,500 cells per well 24 h before compound addition and then incubated with compound for 3 d before assaying viability (CellTiter-Glo, Promega). Assays were performed in biological duplicates. Nonlinear regression curves were fitted using Xfit. IC50 (absolute IC50) is the dose at which the estimated viability is 50% relative to untreated wells.

[2] = test system: Miapaca-2 mutant cells KRAS G12C + V8A; assay: Stable KRAS mutant cell line viability assay (CTG), G12C + V8A
Text: as §1

[3] = test system: Miapaca-2 mutant cells KRAS G12C + D60P; assay: Stable KRAS mutant cell line viability assay (CTG), G12C + D60P
[4] = test system: Miapaca-2 mutant cells KRAS G12C + M72I; assay: Stable KRAS mutant cell line viability assay (CTG), G12C + M72I
Text: as §1

[5] = test system: Miapaca-2 mutant cells KRAS G12C + H95N; assay: Stable KRAS mutant cell line viability assay (CTG), G12C + H95N
Text: as §1

[6] = test system: Miapaca-2 mutant cells KRAS G12C + T58I; assay: Stable KRAS mutant cell line viability assay (CTG), G12C + T58I
Text: as §1

[7] = test system: Miapaca-2 mutant cells KRAS G12C + V9Y; assay: Stable KRAS mutant cell line viability assay (CTG), G12C + V9Y
Text: as §1

[8] = test system: Miapaca-2 mutant cells KRAS G12C + S65W; assay: Stable KRAS mutant cell line viability assay (CTG), G12C + S65W
Text: as §1

[9] = test system: Miapaca-2 mutant cells KRAS G12C + D92R; assay: Stable KRAS mutant cell line viability assay (CTG), G12C + D92R
Text: as §1

[10] = test system: Miapaca-2 mutant cells KRAS G12C + Q99W; assay: Stable KRAS mutant cell line viability assay (CTG), G12C + Q99W
Text: as §1

[11] = test system: Miapaca-2 mutant cells KRAS G12C + R68S; assay: Stable KRAS mutant cell line viability assay (CTG), G12C + R68S
Text: as §1

[12] = test system: Miapaca-2 mutant cells KRAS G12C + S17E; assay: Stable KRAS mutant cell line viability assay (CTG), G12C + S17E
Text: as §1

[13] = test system: Miapaca-2 mutant cells KRAS G12C + Y96D; assay: Stable KRAS mutant cell line viability assay (CTG), G12C + Y96D
Text: as §1

[14] = test system: Miapaca-2 mutant cells KRAS G12C + F156L; assay: Stable KRAS mutant cell line viability assay (CTG), G12C + F156L
Text: as §1

IC50 [1]: 0.032 µM | IC50 [2]: 0.001 µM | IC50 [3]: 0.097 µM | IC50 [4]: 0.001 µM | IC50 [5]: 0.003 µM | IC50 [6]: 0.003 µM | IC50 [7]: 0.003 µM | IC50 [8]: 0.003 µM | IC50 [9]: 0.002 µM | IC50 [10]: 0.003 µM | IC50 [11]: 0.022 µM | IC50 [12]: 0.003 µM | IC50 [13]: 0.006 µM | IC50 [14]: 0.003 µM
SMILES: CCn1c(-c2cc(N3CCOCC3)cnc2[C@H](C)OC)c2c3cc(c(F)cc31)-c1csc(n1)C[C@H](NC(=O)[C@H](C(C)C)N(C)C(=O)[C@H]1C[C@@H](C#CC(F)(F)F)C1)C(=O)N1CCC[C@H](N1)C(=O)OCC(C)(C)C2 (atropisomer, axis not shown; (M)) [Example 11, cis-N-[(1S)-1-[[(7S,13S)-21-ethyl-24-fluoro-(20M)-20-[2-[(1S)-1-methoxyethyl]-5-morpholino-3-pyridyl]-17,17-dimethyl-8,14-dioxo-15-oxa-4-thia-9,21,27,28-tetrazapentacyclo[17.5.2.1^2,5.1^9,13.0^22,26]octacosa-1(25),2,5(28),19,22(26),23-hexaen-7-yl]carbamoyl]-2-methyl-propyl]-N-methyl-3-(3,3,3-trifluoroprop-1-ynyl)cyclobutanecarboxamide]
